Assay results: PMC8347709 (International Journal of Molecular Sciences, 2021)

How the values were obtained:
[1] = molecular target: T1, hCB2R(D80N) (Homo sapiens, UniProt P34972, D80N); assay: PET in rat model with local overexpression of hCB2R(D80N) in the right striatum; format: in vivo; parameters: reduction of the AUC20–60min by displacement: concentration or dose not given beside the values; conditions: for time to peak: TAC; for reduction of the AUC20–60min by displacement: GW405833 i.v. at 20 min p.i.; for change of AUC40–60min by displacement versus vehicle: GW405833 5 mg/kg i.v. 20 min after tracer
T1 construct: expressed in transfected cells; host or cells: rat striatal cells transduced in vivo with AAV2/7-CaMKII0.4-intron-hCB2R D80N
Excerpt: For the uptake studies into the spleen three male Wistar Hun rats (Janvier Laboratories, Le Genest Saint Isle, France) weighing 268 ± 56 g were used. For the uptake studies into the brain, five female Wistar rats weighing 263 ± 13 g carrying the stereotactically injected AAV 2/7-CaMKII0.4-intron-hCB2R D80N (right striatum) and AAV2/7-CaMKII0.4-intron-3flag-eGFP (contralateral, left striatum). Animals were initially anaesthetised with 5% isoflurane and placed on a thermostatically heated animal bed where anaesthesia was maintained with 2% isoflurane in 60% oxygen/38% room air. […] List-mode PET data were binned as a series of attenuation-corrected sinogram frames (12 × 10 s, 6 × 30 s, 5 × 60 s and 10 × 300 s) and were reconstructed by ordered subset expectation maximisation (OSEM3D) with four iterations, six subsets and a voxel size of 0.4 mm^3 (Nucline v2.01, Mediso, Hungary). The analysis of reconstructed datasets was performed with PMOD software (v4.103, PMOD Technologies LLC, Zurich, Switzerland). Non-parametrical analyses of achieved time-activity curves (TACs) were performed with Microsoft Excel to determine the time to peak, the TAC peak value and the area-under-the-zero-momentum curve (AUC):(1) AUC0−tx=∫0txcradioactivity × dt where c (radioactivity) is expressed as a standardised uptake value normalised to the bodyweight in g (SUV), the area-under-first-momentum curve (AUMC):(2) AUMC0−tx=∫0txt × cradioactivity × dt and the mean residence time (MRT):(3) MRT=AUMC0−tx/AUC0−tx

[2] = molecular target: hCB2R (Homo sapiens, UniProt P34972); assay: homologous competition with [18F]LU14 on hCB2R-CHO cell membrane homogenates; format: binding; parameters: host or cells: CHO cells, stably transfected
Experimental: A value of 2.9 nM was experimentally determined. Next, the in vitro evaluation by autoradiography on spleen tissue was performed (Supplementary Figure S1), as the spleen is regarded as a suitable reference organ, having high densities of CB2R (rat spleen CB2R Bmax = 0.71 pmol/mg).
The inhibition curve was obtained by non-linear regression of percent specific binding (mean ±SD; one experiment run in triplicate) plotted versus the log concentration of the test compound.

[3] = molecular target: T2, CB2R in rat spleen tissue (Rattus norvegicus, UniProt Q9QZN9); assay: in vitro autoradiography on rat spleen cryosections; conditions: 10 µm cryosections, female SPRD rats; nonspecific binding with GW405833
T2 construct: from tissue; host or cells: rat spleen cryosections (female SPRD rat)
T2 sequence (Q9QZN9 1-360): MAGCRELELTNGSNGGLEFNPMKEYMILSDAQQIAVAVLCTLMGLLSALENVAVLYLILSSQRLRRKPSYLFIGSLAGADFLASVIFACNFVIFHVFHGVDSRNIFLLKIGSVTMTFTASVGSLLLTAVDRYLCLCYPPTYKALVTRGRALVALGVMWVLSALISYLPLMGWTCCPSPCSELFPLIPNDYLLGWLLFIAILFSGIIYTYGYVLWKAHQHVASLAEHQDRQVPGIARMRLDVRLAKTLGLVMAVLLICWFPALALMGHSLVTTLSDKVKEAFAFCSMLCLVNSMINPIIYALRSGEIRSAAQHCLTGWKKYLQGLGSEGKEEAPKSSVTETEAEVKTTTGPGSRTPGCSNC
Experimental: The in vitro autoradiographic experiments were performed according to a previously published protocol. […] Afterwards, the samples were washed, exposed to imaging plates (Fuji Photo Film, Co. Ltd., Tokyo, Japan), and eventually scanned using a HD-CR 35 scanner (raytest Isotopenmessgeraete GmbH, Straubenhardt, Germany). The scan data were visualised and processed by computer-assisted microdensitometry (Aida version 2.31, raytest Isotopenmessgeräte GmbH, Straubenhardt, Germany).
Figure S1. […] Cryosections (10 µm;
(nonspecific binding; (B) for 60 min. […]

[4] = stability of the formulated product; format: physicochemical; conditions: in saline, within 24 h at room temperature
Experimental: The purification of the product was performed by semipreparative HPLC (Figure 3), followed by trapping on a Sep-Pack C18-light cartridge and elution with EtOH. For biological experiments, the solvent was evaporated under a stream of nitrogen at 70 °C until a volume of about 20–30 µL remained. The product was formulated by using 280 µL saline (0.9% aqueous NaCl). The total synthesis time was about 70 min. […] A logD7.4 of 3.15 ± 0.25 was determined by the shake flask method, which is in accordance with the calculated cLogP of 3.0 (ChemDraw Professional 19.0).

[5] = hCB2R D80N-to-cerebellum, vehicle (10 min prior tracer), n = 3
[6] = hCB2R D80N-to-contralateral, vehicle (10 min prior tracer), n = 3
[7] = same rat model, comparator data ref 68

T1 sequence (P34972 whole entry D80N): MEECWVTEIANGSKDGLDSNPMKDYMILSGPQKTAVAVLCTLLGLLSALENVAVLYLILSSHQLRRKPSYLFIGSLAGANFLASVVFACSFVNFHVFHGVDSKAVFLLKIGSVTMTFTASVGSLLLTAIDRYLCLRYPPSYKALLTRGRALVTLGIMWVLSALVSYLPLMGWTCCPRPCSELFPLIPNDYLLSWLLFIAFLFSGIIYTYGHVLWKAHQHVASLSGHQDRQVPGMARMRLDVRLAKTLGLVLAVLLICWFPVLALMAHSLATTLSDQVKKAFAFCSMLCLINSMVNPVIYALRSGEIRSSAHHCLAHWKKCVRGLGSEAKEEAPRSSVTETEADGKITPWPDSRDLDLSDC
hCB2R, sequence (P34972 whole entry): as the sequence (P34972 whole entry D80N) above, with N80D counted along it

C[C@H]1CC[C@@H](NC(=O)c2cc3cccnc3n(CCCC[18F])c2=O)CC1 [[^18F]LU14] gave a time to peak ([1]; cerebellum) of 1.6 ± 1.4 min, a time to peak ([1]; contralateral region) of 3.8 ± 1.6 min and a time to peak ([1]; hCB2R(D80N) right striatum, rats, i.v., n = 3) of 7.4 ± 2.8 min. The AUC ([1]; cerebellum) was 41.1 ± 5.6 SUV × min, the AUMC ([1]; cerebellum) was 819 ± 132 SUV × min^2 and the MRT ([1]; cerebellum) was 19.9 ± 1.2 min. For the same molecule, the TAC peak value ([1]; cerebellum) was 2.7 ± 0.0 SUV, the “reduction of the AUC20–60min by displacement” value ([1]; compared to the cerebellum) was 76% and the “reduction of the AUC20–60min by displacement” value ([1]; compared to the contralateral region) was 73%. The AUC ([1]; contralateral region) was 42.6 ± 6.8 SUV × min, the AUMC ([1]; contralateral region) was 854 ± 165 SUV × min^2 and the MRT ([1]; contralateral region) was 20.0 ± 1.1 min. For the same molecule, the TAC peak value ([1]; contralateral region) was 2.2 ± 0.4 SUV, the “change of AUC40–60min by displacement versus vehicle” value ([1]; hCB2R D80N-to-cerebellum) was −76.3% and the “AUC40–60min (CI95%)” value ([1]; hCB2R D80N-to-cerebellum, displacement by GW405833 5 mg/kg i.v. 20 min after tracer, n = 2) was 51 (42 to 60) SUVr × min. The “AUC0–20min (CI95%)” value ([1]; hCB2R D80N-to-cerebellum, displacement group (GW405833 5 mg/kg i.v. 20 min after tracer), n = 2) was 49 (40 to 59) SUVr × min, the “AUC0–20min (CI95%)” value [1, 5] was 44 (39 to 48) SUVr × min and the “AUC40–60min (CI95%)” value [1, 5] was 215 (190 to 241) SUVr × min. For the same molecule, the “change of AUC40–60min by displacement versus vehicle” value ([1]; hCB2R D80N-to-contralateral) was −73.4%, the “AUC40–60min (CI95%)” value ([1]; hCB2R D80N-to-contralateral, displacement by GW405833 5 mg/kg i.v. 20 min after tracer, n = 2) was 56 (50 to 62) SUVr × min and the “AUC0–20min (CI95%)” value ([1]; hCB2R D80N-to-contralateral, displacement group (GW405833 5 mg/kg i.v. 20 min after tracer), n = 2) was 48 (41 to 54) SUVr × min. The “AUC0–20min (CI95%)” value [1, 6] was 40 (37 to 42) SUVr × min, the “AUC40–60min (CI95%)” value [1, 6] was 210 (190 to 231) SUVr × min and the AUC ([1]; hCB2R(D80N) right striatum) was 155 ± 28 SUV × min. The AUMC ([1]; hCB2R(D80N) right striatum) was 4349 ± 701 SUV × min^2, the MRT ([1]; hCB2R(D80N) right striatum) was 28.0 ± 0.4 min and the TAC peak value ([1]; hCB2R(D80N) right striatum) was 3.3 ± 0.6 SUV. The “uptake in the brain region with CB2R overexpression compared to [11C]NE40” value [1, 7] was “about two-fold”, the “uptake in the brain region with CB2R overexpression compared to [18F]MA3” value [1, 7] was “about five-fold” and the Kd [2] was 2.9 nM. The “specific binding in spleen autoradiography” value [3] was “no or low specific binding” and the “decomposition of the formulated product” value [4] was “No decomposition”.
